The values that follow come from patent US8232278B2 (Gilead Sciences, Inc., priority 2005, dated 2012).

Like-named read-outs stand apart in the source and are kept apart here.

Data set [1] concerns wild-type HIV-1 strain IIIB. Briefly: HIV-1 assay (XTT, HIV-induced cytopathic effect in MT-2 cells). To be noted: Human immunodeficiency virus 1, MT2, 120 h; 5 μM; MT-2 cells infected with HIV-1 IIIB, 5 days, XTT; read-out: MT2 HIV % inhib. @ 5 μM. It is filed as cell-based. As to the method:
This assay is based on the quantification of the HIV-induced cytopathic effect by a calorimetric detection of the viability of virus-infected cells in the presence or absence of tested inhibitors. The HIV-induced cell death was determined by using as a metabolic substrate 2,3-bis(2-methoxy-4-nitro-5-sulfophenyl)-2H-tetrazolium-5-carboxanilide (hereinafter referred as XTT) which was converted only by live cells into a product with specific absorption characteristics, as described by Weislow et al., J. Natl. Cancer Inst. (1989) 81:577.
The assay protocol for the determination of EC50 includes the following steps: • 1. MT-2 cells were maintained in RPMI-1640 medium supplemented with 10% fetal bovine serum, glutamine and antibiotics. • 2. Cells were infected by the wild-type HIV-1 strain IIIB (ABI, Columbia, Md.) for 3 hours at 37° C. using a multiplicity of infection (MOI) of 0.01. • 3. Prepare a set of solutions containing various concentrations of the tested inhibitor by making 5-fold serial dilutions in 96-well plate (100 μl/well). Alternatively, test single drug concentration (100 μl/well). Distribute the infected cells into the 96-well plate containing the inhibitors (20,000 cells in 100 μl/well). Include the following control samples, untreated infected cells (100% cell death) and control drug-treated infected cells (full protection). • 4. Incubate the cells for 5 days at 37° C. • 5. Prepare XTT solution (6 mL per assay plate) at a concentration of 2 mg/mL in a phosphate-buffered saline at pH 7.4. Heat the solution in water-bath for 10 minutes at 56° C. Add 50 μl of N-methylphenazonium methasulfate (5 μg/mL) per 6 mL of XTT solution. • 6. Remove 100 μl media from each well on the assay plate. • 7. Add 100 μl of the XTT substrate solution per well and incubate at 37° C. for 45 to 60 minutes in a CO2 incubator. • 8. Add 20 μl of 2% Triton X-100 per well to inactivate the virus. • 9. Read the absorbance at 450 nm with subtracting off the background absorbance at 650 nm. • 10. Plot the percentage absorbance relative to untreated control and estimate the EC50 value as drug concentration resulting in a 50% protection of the infected cells. Alternatively, calculate the percentage of inhibition for a fixed concentration, relative to the full protection with the control drug.
This assay has been performed on a set of compounds of the invention, and results are reported in table 8 below, also indicating the nature of substituents being present in positions 4 and 6 of the pyrido[3,2-d]pyrimidine derivatives of the invention (all being amino-substituted in position 2).
In general terms: Formazan colour is commonly taken as a measure of viable cells.

The next data set relates to HCV replicon. As to the kind of experiment: Anti-HCV assay / replicon assay (EC50, luciferase read-out). To be noted: for CC50/EC50: CC50/EC50 ratio (selectivity index); for EC50: Hepatitis C virus. It counts as cell-based, hepatitis C virus (HCV). The method, boiled down: (§1)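 Huh-7 cells carrying an HCV replicon, 6000 per well, were exposed to 3-fold serial compound dilutions (0.5% DMSO final where DMSO was used) for 3 days at 37 °C. EC50 was read by luciferase after cell lysis; CC50 was taken as 50% inhibition of cell growth.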

Data set [2] in a line: CC50 assay in Huh-7 HCV replicon cells (CellTiter-Glo). It counts as cell-based, human. Conditions: human, 50% cytostatic concentration. In outline: as §1
Background: Replicon systems follow genome replication, usually without infectious particles.

Setting [3] is: 72 h, human hepatoma Huh-7 cell line harbouring a HCV replicon, 3 days, luciferase luminescence, read-out: EC50.

In the case of `CC(=O)Nc1ccc(-c2ccc3nc(N)nc(N4CCN(C(C)=O)CC4)c3n2)cc1` [Example 340, 2-amino-4-(N-acetylpiperazino)-6-(p-acetamidophenyl)-pyrido(3,2-d)pyrimidine], the inhibition at 5 µM in data set [1] stood at 4%.
Still for that read-out and setting: then `COc1ccc(-c2ccc3nc(N)nc(N4CCN(C)CC4)c3n2)cc1OC` [Example 36, 2-amino-4-(N-methyl-piperazino)-6-(3,4-dimethoxyphenyl)-pyrido[3,2-d]pyrimidine], with 3%.
For the molecule `CC(=O)Nc1ccc(-c2ccc3nc(N)nc(OCC4CC4)c3n2)cc1` [Example 356, 2-amino-4-(cyclopropylmethyloxy)-6-(p-acetamidophenyl)-pyrido(3,2-d)pyrimidine], the CC50/EC50 in the data set on HCV replicon is recorded as 87. Moreover, the half-maximal effective concentration (EC50) with HCV replicon (setting [3]) was found to be 290 nM. Further, the CC50 at 3 days in data set [2] amounted to 25100 nM.
`CCNc1nc(N)nc2ccc(-c3ccc(F)cc3)nc12` [Example 402, 2-amino-4-ethylamino-6-(4-fluorophenyl)pyrido[3,2-d]pyrimidine]: the CC50/EC50 with HCV replicon came out at 80. The concentration for a half-maximal effect (EC50) in the data set with HCV replicon (setting [3]) came to 376 nM. In data set [2], this molecule displayed a cytotoxic concentration (CC50) at 3 days of 30000 nM.
For `CC(C)COc1nc(N)nc2ccc(-c3ccc(F)cc3)nc12` [Example 293, 2-amino-4-isobutoxy-6-(p-fluorophenyl)-pyrido[3,2-d]pyrimidine], in that order: 68, 370 nM and 25100 nM.
As to `Nc1nc(N2CCN(C(=O)COc3ccc(F)cc3)CC2)c2nc(-c3ccc(F)cc3)ccc2n1` [Example 373, 2-amino-4-[4-(4-fluorophenoxy-acetyl)piperazin-1-yl]-6-(4-fluorophenyl)-pyrido[3,2-d]pyrimidine], in the data set on HCV replicon, the CC50/EC50 came out at 148. The half-maximal effective concentration (EC50) in the data set with HCV replicon (setting [3]) came out at 130 nM. The CC50 at 3 days in data set [2] turned out to be 19200 nM.
For `COc1ccc(-c2ccc3nc(N)nc(N4CCCN(C(=O)Nc5cccc(C)c5)CC4)c3n2)cc1OC` [Example 241, 2-amino-4-[(N-3-methylphenylcarbamoyl)-homopiperazin-1-yl]-6-(3,4-dimethoxyphenyl)-pyrido[3,2-d]pyrimidine], in that order: 218, 11 nM and 2400 nM.
With `Nc1nc(N2CCOCC2)c2nc(-c3ccncc3)ccc2n1` [Example 226, 2-amino-4-morpholino-6-(4-pyridinyl)-pyrido[3,2-d]pyrimidine], the inhibition at 5 µM in data set [1] stood at 9%.
For the molecule `COc1ccc(-c2ccc3nc(N)nc(N4CCN(CC(=O)NCCc5ccccc5)CC4)c3n2)cc1OC` [Example 260, 2-amino-4-[4-(N-2-phenylethylacetamid-2-yl)piperazin-1-yl]-6-(3,4-dimethoxyphenyl)-pyrido[3,2-d]pyrimidine], in the data set with HCV replicon, the CC50/EC50 is 73. Also, the EC50 in the data set with HCV replicon (setting [3]) was 36 nM. Besides, the midpoint of cytotoxicity in data set [2], the CC50 at 3 days, lay at 2600 nM.
For `CCC(C)Oc1nc(N)nc2ccc(-c3ccc(F)cc3)nc12` (stereo not drawn) [Example 296, 2-amino-4-sec. butoxy-6-(p-fluorophenyl)-pyrido[3,2-d]pyrimidine], in that order: 67, 560 nM and 37500 nM.
For `CCOc1nc(N)nc2ccc(-c3ccccc3F)nc12` [Example 279, 2-amino-4-ethoxy-6-(o-fluorophenyl)-pyrido[3,2-d]pyrimidine], in that order: 54, 690 nM and 37500 nM.
The corresponding values for `COc1ccc(-c2ccc3nc(N)nc(Nc4cccc(Br)c4)c3n2)cc1OC` [Example 34, 2-amino-4-(3-bromo-anilino)-6-(3,4-dimethoxyphenyl)pyrido[3,2-d]-pyrimidine] are 151, 51 nM and 7700 nM.
In the case of `CC(=O)N1CCN(c2nc(N)nc3ccc(-c4ccc5c(c4)OCO5)nc23)CC1` [Example 184, 2-amino-4-[N-acetyl-piperazin-1-yl]-6-(3,4-methylenedioxyphenyl)-pyrido[3,2-d]pyrimidine], the CC50/EC50 with HCV replicon came out at 128. Further, the EC50 in the data set with HCV replicon (setting [3]) is 170 nM. The same molecule gave a CC50 at 3 days in data set [2] of 21800 nM.
For the molecule `Nc1nc(OCC(F)(F)F)c2nc(-c3ccc(F)cc3)ccc2n1` [Example 351, 2-amino-4-(trifluoroethoxy)-6-(4-fluorophenyl)-pyrido[3,2-d]pyrimidine], the CC50/EC50 in the data set with HCV replicon was determined as 132. In addition, the EC50 with HCV replicon (setting [3]) came to 190 nM. For the same molecule, the CC50 at 3 days in data set [2] came to 25100 nM.
Take `CC(=O)Nc1nc(OC(C)C)c2nc(-c3ccc(F)cc3)ccc2n1` [Example 285, 2-acetamido-4-isopropoxy-6-(p-fluorophenyl)-pyrido[3,2-d]pyrimidine]: the CC50/EC50 in the data set on HCV replicon is 492. For the same molecule, in the data set on HCV replicon (setting [3]), the EC50 came out at 51 nM. In data set [2], the midpoint of cytotoxicity, the CC50 at 3 days, lay at 25100 nM.
For `COc1ccc(-c2ccc3nc(N)nc(NC4CCCN(C(=O)Nc5cccc(C)c5)C4)c3n2)cc1OC` (stereo not drawn) [Example 254, 2-amino-4-[(3-methylphenylcarbamoylpiperidin-3-yl)amino)-6-(3,4-dimethoxyphenyl]-pyrido[3,2-d]pyrimidine], in that order: 147, 50 nM and 7300 nM.
For `Nc1nc(N2CCN(C(=O)COc3ccc(Cl)cc3Cl)CC2)c2nc(-c3ccc(F)cc3)ccc2n1` [Example 372, 2-amino-4-[4-(2,4-dichlorophenoxy-acetyl)piperazin-1-yl]-6-(4-fluorophenyl)-pyrido[3,2-d]pyrimidine], in that order: 78, 320 nM and 25100 nM.
In the case of `Nc1ccc(-c2ccc3nc(N)nc(N4CCOCC4)c3n2)cc1` [Example 502, 6-(4-amino-phenyl)-4-morpholin-4-yl-pyrido[3,2-d]pyrimidin-2-ylamine], the CC50/EC50 in the data set on HCV replicon turned out to be 82. For the same molecule, the EC50 with HCV replicon (Huh-7, 72 h) was 99 nM. The molecule further returned a CC50 at 3 days in data set [2] of 8100 nM.
`COc1ccc(-c2ccc3nc(N)nc(N4CCN(CC(=O)N5CCCC5)CC4)c3n2)cc1OC` [Example 263, 2-amino-4-(N-pyrrolidinyl-acetamid-2-yl-piperazin-1-yl)-6-(3,4-dimethoxyphenyl)pyrido[3,2-d]pyrimidine]: in the data set on HCV replicon, the CC50/EC50 is listed as 102. Further, in the data set with HCV replicon (setting [3]), the EC50 stood at 28 nM. Also, half-maximal cytotoxicity in data set [2] (CC50 at 3 days) was put at 2900 nM.
For `Nc1nc(N2CCN(C(=O)COc3cccc(Cl)c3)CC2)c2nc(-c3ccc(F)cc3)ccc2n1` [Example 371, 2-amino-4-[4-(3-chlorophenoxy-acetyl)piperazin-1-yl]-6-(4-fluorophenyl)-pyrido[3,2-d]pyrimidine], in that order: 837, 30 nM and 25100 nM.
For the molecule `CCOc1cccc(-c2ccc3nc(N)nc(OCC)c3n2)c1` [Example 549], the CC50/EC50 in the data set with HCV replicon is 53. The EC50 in the data set on HCV replicon (setting [3]) is 470 nM. Moreover, the CC50 at 3 days in data set [2] is 25100 nM.
For `COc1ccc(-c2ccc3nc(N)nc(NC4CCCN(C(=O)OC(C)(C)C)C4)c3n2)cc1OC` (stereo not drawn) [Example 247, 2-amino-4-[(1-Boc-piperidin-3-yl)amino]-6-(3,4-dimethoxyphenyl)-pyrido[3,2-d]pyrimidine], in that order: 238, 22 nM and 5200 nM.
In the case of `COCCSc1nc(N)nc2ccc(-c3ccc(F)cc3)nc12` [Example 395], the CC50/EC50 with HCV replicon is 278. In addition, the half-maximal effective concentration (EC50) with HCV replicon (Huh-7, 72 h) was determined as 49 nM. The same molecule yielded a CC50 at 3 days in data set [2] of 13600 nM.
Consider `COc1ccc(-c2ccc3nc(N)nc(N4CCCC(C(=O)NCC(C)C)C4)c3n2)cc1OC` (stereo not drawn) [Example 258, 2-amino-4-[(3-carboxylic acid isobutylamide)-piperidin-1-yl]-6-(3,4-dimethoxyphenyl)-pyrido[3,2-d]pyrimidine], for which the CC50/EC50 in the data set on HCV replicon was 56. Besides, the EC50 in the data set on HCV replicon (setting [3]) worked out at 74 nM. Also, in data set [2], the CC50 at 3 days was 4200 nM.

A word on the EC50: it is the midpoint of the concentration-response curve. In general, CC50 refers to the concentration that lowers cell viability or growth by half.
